System: MV-4-11 cells
Assay: Gene expression microarray analysis (Affymetrix PrimeView) and GSEA
Assay type: cell-based, human
Parameters: RFU PODN (11730768_x_at) / Fold change /veh PODN (11730768_x_at) / RFU LINC00158 (11744669_a_at) / Fold change /veh LINC00158 (11744669_a_at) / RFU DUSP10 (11751237_a_at) / Fold change /veh DUSP10 (11751237_a_at) / RFU ID3 (11757404_x_at) / Fold change /veh ID3 (11757404_x_at) / RFU PLEKHG5 (11737974_s_at) / Fold change /veh PLEKHG5 (11737974_s_at) / RFU LRRC4B (11730491_at) / Fold change /veh LRRC4B (11730491_at) / RFU GIMAP4 (11747438_a_at) / Fold change /veh GIMAP4 (11747438_a_at) / RFU KRT8 (11758183_x_at) / Fold change /veh KRT8 (11758183_x_at) / RFU CNN1 (11734310_a_at) / Fold change /veh CNN1 (11734310_a_at) / RFU VPS37D (11726825_at) / Fold change /veh VPS37D (11726825_at) / RFU C10orf10 (11716522_x_at) / Fold change /veh C10orf10 (11716522_x_at) / RFU KIR2DL2 /// KIR2DL4 /// KIR2DL5A /// KIR2DL5B /// KIR2DS1 /// KIR2DS2 /// KIR2DS3 /// KIR2DS4 /// KIR3DL3 /// KIR3DL3 /// KIR3DS1 (11738374_at) / Fold change /veh KIR2DL2 /// KIR2DL4 /// KIR2DL5A /// KIR2DL5B /// KIR2DS1 /// KIR2DS2 /// KIR2DS3 /// KIR2DS4 /// KIR3DL3 /// KIR3DL3 /// KIR3DS1 (11738374_at) / RFU C1QL1 (11718748_at) / Fold change /veh C1QL1 (11718748_at) / RFU TMPRSS4 (11747572_a_at) / Fold change /veh TMPRSS4 (11747572_a_at) / RFU HAMP (11756126_x_at) / Fold change /veh HAMP (11756126_x_at) / RFU RNFT2 (11725882_a_at) / Fold change /veh RNFT2 (11725882_a_at) / RFU NR4A2 (11747474_a_at) / Fold change /veh NR4A2 (11747474_a_at) / RFU ABCC12 (11746883_a_at) / Fold change /veh ABCC12 (11746883_a_at) / RFU TMEM136 (11760407_x_at) / Fold change /veh TMEM136 (11760407_x_at) / RFU CLDN22 /// WWC2 (11732394_at) / Fold change /veh CLDN22 /// WWC2 (11732394_at) / RFU HLA-DPB1 (11760878_x_at) / Fold change /veh HLA-DPB1 (11760878_x_at) / RFU SPINT1 (11716480_a_at) / Fold change /veh SPINT1 (11716480_a_at) / RFU GAP43 (11754022_s_at) / Fold change /veh GAP43 (11754022_s_at) / RFU A4GNT (11735810_at) / Fold change /veh A4GNT (11735810_at) / RFU PRB3 (11715151_x_at) / Fold change /veh PRB3 (11715151_x_at) / RFU TUBB4B (11761932_at) / Fold change /veh TUBB4B (11761932_at) / RFU CAPN14 (11732068_a_at) / Fold change /veh CAPN14 (11732068_a_at) / RFU TMCC2 (11721928_a_at) / Fold change /veh TMCC2 (11721928_a_at) / RFU IRGQ (11745062_a_at) / Fold change /veh IRGQ (11745062_a_at) / RFU FAM174B (11720279_a_at) / Fold change /veh FAM174B (11720279_a_at) / RFU TMPRSS4 (11748680_a_at) / Fold change /veh TMPRSS4 (11748680_a_at) / RFU FAM212B (11763350_a_at) / Fold change /veh FAM212B (11763350_a_at) / RFU PLEKHG5 (11743358_a_at) / Fold change /veh PLEKHG5 (11743358_a_at) / RFU ZSCAN30 (11745921_a_at) / Fold change /veh ZSCAN30 (11745921_a_at) / RFU CMKLR1 (11741424_a_at) / Fold change /veh CMKLR1 (11741424_a_at) / RFU LOC101060620 /// MAPK8IP1 (11723275_at) / Fold change /veh LOC101060620 /// MAPK8IP1 (11723275_at) / RFU SPTSSB (11747773_x_at) / Fold change /veh SPTSSB (11747773_x_at) / RFU PRSS12 (11739890_at) / Fold change /veh PRSS12 (11739890_at) / RFU BIN1 (11741810_x_at) / Fold change /veh BIN1 (11741810_x_at) / RFU WNT11 (11732464_a_at) / Fold change /veh WNT11 (11732464_a_at) / RFU C10orf10 (11716521_a_at) / Fold change /veh C10orf10 (11716521_a_at) / RFU C5orf56 (11738089_at) / Fold change /veh C5orf56 (11738089_at) / RFU CYB561 (11721691_x_at) / Fold change /veh CYB561 (11721691_x_at) / RFU ANKRD19P (11752326_a_at) / Fold change /veh ANKRD19P (11752326_a_at) / RFU OR2T12 /// OR2T33 /// OR2T8 (11738714_s_at) / Fold change /veh OR2T12 /// OR2T33 /// OR2T8 (11738714_s_at) / RFU VCAN (11748164_a_at) / Fold change /veh VCAN (11748164_a_at) / RFU JSRP1 (11732532_at) / Fold change /veh JSRP1 (11732532_at) / RFU KRTAP10-11 (11738290_x_at) / Fold change /veh KRTAP10-11 (11738290_x_at) / RFU MYO3A (11730013_a_at) / Fold change /veh MYO3A (11730013_a_at) / RFU EBF3 (11725865_a_at) / Fold change /veh EBF3 (11725865_a_at) / RFU CAMK2N1 (11719241_x_at) / Fold change /veh CAMK2N1 (11719241_x_at) / RFU C5orf56 (11738088_a_at) / Fold change /veh C5orf56 (11738088_a_at) / RFU OLFML3 (11715873_a_at) / Fold change /veh OLFML3 (11715873_a_at) / RFU LOC100653217 /// NTM (11731650_a_at) / Fold change /veh LOC100653217 /// NTM (11731650_a_at) / RFU MAPK11 (11762145_a_at) / Fold change /veh MAPK11 (11762145_a_at) / RFU FIZ1 (11724087_x_at) / Fold change /veh FIZ1 (11724087_x_at) / RFU OASL (11726364_x_at) / Fold change /veh OASL (11726364_x_at) / RFU SOX15 (11748057_x_at) / Fold change /veh SOX15 (11748057_x_at) / RFU CD79A (11719716_a_at) / Fold change /veh CD79A (11719716_a_at) / RFU HIST1H1D (11736915_at) / Fold change /veh HIST1H1D (11736915_at) / RFU CASKIN2 (11723855_a_at) / Fold change /veh CASKIN2 (11723855_a_at) / RFU LOC730098 (11760151_x_at) / Fold change /veh LOC730098 (11760151_x_at) / RFU OR4N2 (11742367_at) / Fold change /veh OR4N2 (11742367_at) / RFU PRRT2 (11749266_a_at) / Fold change /veh PRRT2 (11749266_a_at) / RFU SNX32 (11753110_a_at) / Fold change /veh SNX32 (11753110_a_at) / RFU CDHR5 (11726645_a_at) / Fold change /veh CDHR5 (11726645_a_at) / RFU RCAN1 (11760418_a_at) / Fold change /veh RCAN1 (11760418_a_at) / RFU FAM167A (11723789_a_at) / Fold change /veh FAM167A (11723789_a_at) / RFU FAM26E (11764081_at) / Fold change /veh FAM26E (11764081_at) / RFU ISYNA1 (11749810_s_at) / Fold change /veh ISYNA1 (11749810_s_at) / RFU ACY1 (11761880_at) / Fold change /veh ACY1 (11761880_at) / RFU 11764098_at / Fold change /veh 11764098_at / RFU SAMD14 (11745864_x_at) / Fold change /veh SAMD14 (11745864_x_at) / RFU NPB (11741838_a_at) / Fold change /veh NPB (11741838_a_at) / RFU TMPRSS6 (11731388_a_at) / Fold change /veh TMPRSS6 (11731388_a_at) / RFU KRTAP10-2 (11738614_at) / Fold change /veh KRTAP10-2 (11738614_at) / RFU ARHGAP8 /// PRR5-ARHGAP8 (11727945_x_at) / Fold change /veh ARHGAP8 /// PRR5-ARHGAP8 (11727945_x_at) / RFU KRTAP5-7 /// NADSYN1 (11734609_at) / Fold change /veh KRTAP5-7 /// NADSYN1 (11734609_at) / RFU RASL12 (11751679_a_at) / Fold change /veh RASL12 (11751679_a_at) / RFU CDKN2B (11736163_a_at) / Fold change /veh CDKN2B (11736163_a_at) / RFU PRF1 (11729649_at) / Fold change /veh PRF1 (11729649_at) / RFU, ZNF638 /// ZNF638-IT1 / Fold change vs veh, ZNF638 /// ZNF638-IT1 / RFU, PANK3 / Fold change vs veh, PANK3 / RFU, SH3YL1 / Fold change vs veh, SH3YL1 / RFU, ZEB2 / Fold change vs veh, ZEB2 / RFU, NRIP1 / Fold change vs veh, NRIP1 / RFU, PTTG1IP / Fold change vs veh, PTTG1IP / RFU, CAPN2 / Fold change vs veh, CAPN2 / RFU, MED14 / Fold change vs veh, MED14 / RFU, SNORA58 / Fold change vs veh, SNORA58 / RFU, C1orf63 / Fold change vs veh, C1orf63 / RFU, LRRFIP1 / Fold change vs veh, LRRFIP1 / RFU, NDUFAF7 / Fold change vs veh, NDUFAF7 / RFU, SLC12A2 / Fold change vs veh, SLC12A2 / RFU, IBTK / Fold change vs veh, IBTK / RFU, ESF1 / Fold change vs veh, ESF1 / Fold change vs veh, TMEM50B / RFU, TAOK1 / Fold change vs veh, TAOK1 / RFU, ACBD3 / Fold change vs veh, ACBD3 / RFU, TMA16 / Fold change vs veh, TMA16 / RFU, RWDD3 / Fold change vs veh, RWDD3 / RFU, BCAT1 / Fold change vs veh, BCAT1 / RFU, EDEM3 / Fold change vs veh, EDEM3 / RFU, TMEM33 / Fold change vs veh, TMEM33 / RFU, WDR75 / Fold change vs veh, WDR75 / RFU, AHCTF1 / Fold change vs veh, AHCTF1 / RFU, TFRC / Fold change vs veh, TFRC / RFU, ZDHHC17 / Fold change vs veh, ZDHHC17 / RFU, NOM1 / Fold change vs veh, NOM1 / RFU, ARL8B / Fold change vs veh, ARL8B / RFU, ZBTB11 / Fold change vs veh, ZBTB11 / RFU, TAMM41 / Fold change vs veh, TAMM41 / RFU, KIAA1704 /// LOC100996395 / Fold change vs veh, KIAA1704 /// LOC100996395 / RFU, ING1 / Fold change vs veh, ING1 / RFU, TRMT61B / Fold change vs veh, TRMT61B / RFU, FUBP3 / Fold change vs veh, FUBP3 / RFU, TP53 / Fold change vs veh, TP53 / RFU, TNKS2 / Fold change vs veh, TNKS2 / RFU, ZFP14 / Fold change vs veh, ZFP14 / RFU, ACTR2 / Fold change vs veh, ACTR2 / RFU, PPP3R1 / Fold change vs veh, PPP3R1 / RFU, PIK3R1 / Fold change vs veh, PIK3R1 / RFU, HNRNPA1 / Fold change vs veh, HNRNPA1 / RFU, RNF170 / Fold change vs veh, RNF170 / RFU, ZNF28 / Fold change vs veh, ZNF28 / RFU, RNGTT / Fold change vs veh, RNGTT / RFU, OGT / Fold change vs veh, OGT / RFU, BRD1 / Fold change vs veh, BRD1 / RFU, MARS / Fold change vs veh, MARS / RFU, ZNF655 / Fold change vs veh, ZNF655 / RFU, FAHD1 / Fold change vs veh, FAHD1 / RFU, BDP1 / Fold change vs veh, BDP1 / RFU, LRRCC1 / Fold change vs veh, LRRCC1 / RFU, ARID1A / Fold change vs veh, ARID1A / RFU, ZNF146 / Fold change vs veh, ZNF146 / RFU, ZNF330 / Fold change vs veh, ZNF330 / RFU, GPN3 / Fold change vs veh, GPN3 / RFU, C9orf123 / Fold change vs veh, C9orf123 / RFU, N4BP2L2 / Fold change vs veh, N4BP2L2 / RFU, ARFIP1 / Fold change vs veh, ARFIP1 / RFU, FAM179B / Fold change vs veh, FAM179B / RFU, BCL10 / Fold change vs veh, BCL10 / RFU, UHRF1BP1L / Fold change vs veh, UHRF1BP1L / RFU, BET1 / Fold change vs veh, BET1 / RFU, CNOT2 / Fold change vs veh, CNOT2 / RFU, ZNF268 / Fold change vs veh, ZNF268 / Fold change vs veh, ZNF507 / RFU, DGCR2 / Fold change vs veh, DGCR2 / RFU, WDSUB1 / Fold change vs veh, WDSUB1 / Fold change vs veh, HSP90B1 /// MIR3652 / RFU, ADSS / Fold change vs veh, ADSS / RFU, GK / Fold change vs veh, GK / RFU, ZNF148 / Fold change vs veh, ZNF148 / RFU, TAF9 / Fold change vs veh, TAF9 / RFU, SLC1A5 / Fold change vs veh, SLC1A5 / RFU, SLMO2 / Fold change vs veh, SLMO2 / RFU, ABCC4 / Fold change vs veh, ABCC4 / RFU, LOC101060439 /// RAP1B / Fold change vs veh, LOC101060439 /// RAP1B / RFU, RFX7 / Fold change vs veh, RFX7 / RFU, GTPBP10 / Fold change vs veh, GTPBP10 / RFU, CNEP1R1 / Fold change vs veh, CNEP1R1 / RFU, BIVM-ERCC5 /// ERCC5 / Fold change vs veh, BIVM-ERCC5 /// ERCC5 / RFU, ILF3 / Fold change vs veh, ILF3 / RFU 11762660_at / Fold change /veh 11762660_at / RFU VCAN (11757783_s_at) / Fold change /veh VCAN (11757783_s_at) / RFU DDX43 (11728927_at) / Fold change /veh DDX43 (11728927_at) / RFU KRT8 (11758188_x_at) / Fold change /veh KRT8 (11758188_x_at) / RFU NKD1 (11759106_at) / Fold change /veh NKD1 (11759106_at) / RFU SRD5A1 (11742802_a_at) / Fold change /veh SRD5A1 (11742802_a_at) / RFU TPSAB1 /// TPSB2 (11721975_s_at) / Fold change /veh TPSAB1 /// TPSB2 (11721975_s_at) / RFU GSTM3 (11746129_a_at) / Fold change /veh GSTM3 (11746129_a_at) / RFU IL23R (11737362_x_at) / Fold change /veh IL23R (11737362_x_at) / RFU TMEM51 (11727254_a_at) / Fold change /veh TMEM51 (11727254_a_at) / RFU PIWIL2 (11732686_x_at) / Fold change /veh PIWIL2 (11732686_x_at) / RFU ORM1 (11744905_x_at) / Fold change /veh ORM1 (11744905_x_at) / RFU CCDC152 (11743942_at) / Fold change /veh CCDC152 (11743942_at) / RFU ECM1 (11717891_a_at) / Fold change /veh ECM1 (11717891_a_at) / RFU IL23R (11748794_a_at) / Fold change /veh IL23R (11748794_a_at) / RFU TNFAIP8L3 (11732012_x_at) / Fold change /veh TNFAIP8L3 (11732012_x_at) / RFU MBOAT4 (11741988_at) / Fold change /veh MBOAT4 (11741988_at) / RFU 11764193_at / Fold change /veh 11764193_at / RFU TMEM53 (11763286_at) / Fold change /veh TMEM53 (11763286_at) / RFU MAGEB2 (11727129_at) / Fold change /veh MAGEB2 (11727129_at) / RFU TMEM200A (11744735_a_at) / Fold change /veh TMEM200A (11744735_a_at) / RFU CCDC152 (11751479_a_at) / Fold change /veh CCDC152 (11751479_a_at) / RFU FAM211A (11726209_a_at) / Fold change /veh FAM211A (11726209_a_at) / RFU RGS16 (11746705_a_at) / Fold change /veh RGS16 (11746705_a_at) / RFU VCAN (11755009_s_at) / Fold change /veh VCAN (11755009_s_at) / RFU RHOB (11743442_s_at) / Fold change /veh RHOB (11743442_s_at) / RFU RGS16 (11720943_a_at) / Fold change /veh RGS16 (11720943_a_at) / RFU RGS16 (11720944_at) / Fold change /veh RGS16 (11720944_at) / RFU, VPS4B / Fold change vs veh, VPS4B / RFU, CREB1 / Fold change vs veh, CREB1 / RFU, DNAJC13 / Fold change vs veh, DNAJC13 / RFU, GNAQ / Fold change vs veh, GNAQ / RFU, CDK5R1 / Fold change vs veh, CDK5R1 / RFU, ZRANB3 / Fold change vs veh, ZRANB3 / RFU, CUL4A / Fold change vs veh, CUL4A / RFU, CCNY / Fold change vs veh, CCNY / RFU, UFL1 / Fold change vs veh, UFL1 / RFU, COG3 / Fold change vs veh, COG3 / RFU, DIAPH2 / Fold change vs veh, DIAPH2 / RFU, SKA2 / Fold change vs veh, SKA2 / RFU, AFF3 / Fold change vs veh, AFF3 / RFU, LMF1 / Fold change vs veh, LMF1 / RFU, IPO11 / Fold change vs veh, IPO11 / RFU, DFFB / Fold change vs veh, DFFB / RFU, FOXP1 / Fold change vs veh, FOXP1 / RFU, CARD8 / Fold change vs veh, CARD8 / RFU, STRN3 / Fold change vs veh, STRN3 / RFU, ADK / Fold change vs veh, ADK / RFU, RASSF2 / Fold change vs veh, RASSF2 / RFU, WIPF1 / Fold change vs veh, WIPF1 / RFU, LARP1B / Fold change vs veh, LARP1B / RFU, RASA1 / Fold change vs veh, RASA1 / RFU, RB1 / Fold change vs veh, RB1 / RFU, PPFIA1 / Fold change vs veh, PPFIA1 / RFU, MAT2A / Fold change vs veh, MAT2A / RFU, CCT5 / Fold change vs veh, CCT5 / RFU, WDR92 / Fold change vs veh, WDR92 / RFU, CUX1 / Fold change vs veh, CUX1 / RFU, TTC7A / Fold change vs veh, TTC7A / RFU, TMEM135 / Fold change vs veh, TMEM135 / RFU, DEPTOR / Fold change vs veh, DEPTOR / RFU, CPM / Fold change vs veh, CPM / RFU, DNAJB6 / Fold change vs veh, DNAJB6 / RFU, CACNA2D3 / Fold change vs veh, CACNA2D3 / RFU, DTX4 / Fold change vs veh, DTX4 / RFU, TFCP2 / Fold change vs veh, TFCP2 / RFU, GMCL1 /// GMCL1P1 / Fold change vs veh, GMCL1 /// GMCL1P1 / RFU, AEBP2 / Fold change vs veh, AEBP2 / RFU, SNHG1 /// SNORD22 /// SNORD25 /// SNORD26 /// SNORD27 /// SNORD28 /// SNORD29 /// SNORD31 / Fold change vs veh, SNHG1 /// SNORD22 /// SNORD25 /// SNORD26 /// SNORD27 /// SNORD28 /// SNORD29 /// SNORD31 / Fold change (Aza/veh), C12orf56 (ProbeSet 11735607_a_at) / Fold change (ACY-1035/veh), C12orf56 (ProbeSet 11735607_a_at) / Fold change (Aza/veh), FGFR1OP (ProbeSet 11751329_s_at) / Fold change (ACY-1035/veh), FGFR1OP (ProbeSet 11751329_s_at) / Fold change (Aza/veh), VPS36 (ProbeSet 11739960_a_at) / Fold change (ACY-1035/veh), VPS36 (ProbeSet 11739960_a_at) / RFU SYPL1 (11715823_x_at) / Fold change /veh SYPL1 (11715823_x_at) / RFU IGFBP7 (11715501_s_at) / Fold change /veh IGFBP7 (11715501_s_at) / RFU REEP3 (11722064_at) / Fold change /veh REEP3 (11722064_at) / RFU IGLL1 (11728026_x_at) / Fold change /veh IGLL1 (11728026_x_at): dose or concentration left out as unconfirmed
Settings: ProbeSet 11743286_at; LIST D

**Q.** How did the “Fold change vs veh, DTX4” value turn out when `Nc1ncn([C@@H]2O[C@H](CO)[C@@H](O)[C@H]2O)c(=O)n1` [azacitidine] was run?
**A.** 0.59

Reference: publication PMC5218480 (PLoS ONE, 2017)
